Measurements taken from patent US8871756B2 (Hoffmann-La Roche Inc., priority 2011, dated 2014).

Test system: RSV Long strain
Assay: Viral cytopathic effect (CPE) assay, anti-RSV activity
Format: cell-based, Respiratory Syncytial Virus
Conditions: RSV Long strain (ATCC); cell viability after 6 days, Cell Counting kit-8
Method in brief: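 EC50 was derived from CCK-8 viability at 450/630 nm measured 6 days post-infection. Infection used enough RSV Long strain for approximately 80–90% cytopathic effect, in the presence of half-log serially diluted compound. Cells were plated the day before at 6×10^3 per well in DMEM/10% FBS.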

Work on `Cc1ccc2nc(N3CC[S+]([O-])c4ccccc4C3)cc(NCC3(N)COC3)c2c1` (single isomer, unassigned; (+)) [Example 18-2, (+)-N-[(3-Aminooxetan-3-yl)methyl]-6-methyl-2-[1-oxido-2,3-dihydro-1,4-benzothiazepin-4(5H)-yl]quinolin-4-amine] yielded an EC50 of 0.024 µM.

Same assay, conditions: human respiratory syncytial virus, 144 h, RSV Long strain (ATCC); cell viability after 6 days, Cell Counting kit-8

Compared with `Cc1ccc2nc(N3CCS(=O)(=O)c4ccccc4C3)cc(N3CC4CC3C4N)c2c1` (stereo not shown) [Example 19-8, 2-[2-(1,1-Dioxido-2,3-dihydro-1,4-benzothiazepin-4(5H)-yl)-6-methylquinolin-4-yl]-2-azabicyclo[2.1.1]hexan-5-amine], `Cc1ccc2nc(N3CCS(=O)(=O)c4ccccc4C3)cc(N3C[C@H](O)C(C)(C)C3)c2c1` [Example 3-17, (R)-1-[2-(1,1-Dioxido-2,3-dihydro-1,4-benzothiazepin-4(5H)-yl)-6-methylquinolin-4-yl]-4,4-dimethyl-pyrrolidin-3-ol] is 1.8-fold higher in EC50: 2.75 µM for the first, 5.05 µM for the second.

Compared with `COc1ccc2nc(N3CCS(=O)(=O)c4ccccc4C3)cc(NCCCN)c2c1` [Example 17-4, N-[2-(1,1-Dioxido-2,3-dihydro-1,4-benzothiazepin-4(5H)-yl)-6-methoxyquinolin-4-yl]propane-1,3-diamine], `COCCOc1ccc2nc(N3CCS(=O)(=O)c4ccccc4C3)cc(NCCCN)c2c1` [Example 30-2, N-[2-(1,1-Dioxido-2,3-dihydro-1,4-benzothiazepin-4(5H)-yl)-6-(2-methoxyethoxy)quinolin-4-yl]propane-1,3-diamine] is 3.1-fold higher in EC50: 0.071 µM for the first, 0.218 µM for the second. The first is the more potent here.

First: Cc1ccc2nc(N3CCS(=O)(=O)c4ccccc4C3)cc(NC[C@H]3COC(N)=N3)c2c1 [Example 38-4, N-{[(4S)-2-Amino-4,5-dihydro-1,3-oxazol-4-yl]methyl}-2-(1,1-dioxido-2,3-dihydro-1,4-benzothiazepin-4(5 H)-yl)-6-methylquinolin-4-amine]
Second: Cc1ccc2nc(N3CCS(=O)(=O)c4ccccc4C3)cc(NCC(N)=O)c2c1 [Example 36-5, N^˜2^˜-[2-(1,1-Dioxido-2,3-dihydro-1,4-benzothiazepin-4(5H)-yl)-6-methylquinolin-4-yl]glycinamide]
The EC50 of the first is 2.5-fold higher: 0.064 µM for the first, 0.026 µM for the second.

Compared with `CC(=O)NCCCNc1cc(N2CCS(=O)(=O)c3ccccc3C2)nc2ccc(C)cc12` [Example 63-3, N-(3-{[2-(1,1-Dioxido-2,3-dihydro-1,4-benzothiazepin-4(5H)-yl)-6-methylquinolin-4-yl]amino}propyl)acetamide], `COCCNCCNc1cc(N2CCS(=O)(=O)c3ccccc3C2)nc2ccc(C)cc12` [Example 3-44, N-[2-(1,1-Dioxido-2,3-dihydro-1,4-benzothiazepin-4(5H)-yl)-6-methylquinolin-4-yl]-N′-(2-methoxyethyl)ethane-1,2-diamine] is 1.7-fold higher in EC50: 0.007 µM for the first, 0.012 µM for the second. The first is the more potent here.

`Cc1ccc2nc(N3CCS(=O)(=O)c4ccccc4C3)cc(NC(C)CC(N)=O)c2c1` (stereo not shown) [Example 36-2, 3-{[2-(1,1-Dioxido-2,3-dihydro-1,4-benzothiazepin-4(5H)-yl)-6-methylquinolin-4-yl]amino}butanamide] and `Cc1ccc2nc(N3CCS(=O)(=O)c4ccccc4C3)cc(NCC(C)C(N)=O)c2c1` (stereo not shown) [Example 36-3, 3-{[2-(1,1-Dioxido-2,3-dihydro-1,4-benzothiazepin-4(5H)-yl)-6-methylquinolin-4-yl]amino}-2-methylpropanamide] are within 1.5-fold of each other in EC50: 1.47 µM for the first, 2.15 µM for the second.

Going from `Cc1ccc2nc(N3CCS(=O)(=O)c4ccccc4C3)cc(NCCNCC(F)F)c2c1` [Example 5-11, N-(2,2-Difluoroethyl)-N′-[2-(1,1-dioxido-2,3-dihydro-1,4-benzothiazepin-4(5H)-yl)-6-methylquinolin-4-yl]ethane-1,2-diamine] to `Cc1ccc2nc(N3CCS(=O)(=O)c4ccccc4C3)cc(NCC(C)(C)N)c2c1` [Example 5-3, N˜1˜-[2-(1,1-Dioxido-2,3-dihydro-1,4-benzothiazepin-4(5H)-yl)-6-methylquinolin-4-yl]-2-methylpropane-1,2-diamine], the EC50 falls from 0.526 µM to 0.015 µM (35-fold). The second is the more potent here.

First: Cc1ccc2nc(N3CCC(F)(F)c4ccccc4C3)cc(NCCCN)c2c1 [Example 111-9, N-[2-(5,5-Difluoro-1,3,4,5-tetrahydro-2H-2-benzazepin-2-yl)-6-methylquinolin-4-yl]propane-1,3-diamine]
Second: Cc1ccc2nc(N3CCC(F)(F)c4ccccc4C3)cc(NCCOCCN)c2c1 [Example 110-2, N-[2-(2-Aminoethoxy)ethyl]-2-(5,5-difluoro-1,3,4,5-tetrahydro-2H-2-benzazepin-2-yl)-6-methylquinolin-4-amine]
The EC50 of the first is 56-fold lower: 0.047 µM for the first, 2.61 µM for the second. The first is the more potent here.

Going from `Cc1ccc2nc(N3CCS(=O)(=O)c4ccccc4C3)cc(Nc3cccc(N)c3)c2c1` [Example 15-1, N-[2-(1,1-Dioxido-2,3-dihydro-1,4-benzothiazepin-4(5H)-yl)-6-methylquinolin-4-yl]benzene-1,3-diamine] to `Cc1ccc2nc(N3CCS(=O)(=O)c4ccccc4C3)cc(NC(=O)c3ccccc3)c2c1` [Example 3-59, N-[2-(1,1-Dioxido-2,3-dihydro-1,4-benzothiazepin-4(5H)-yl)-6-methylquinolin-4-yl]benzamide], the EC50 falls from 7.89 µM to 1.08 µM (7.3-fold).

Going from `Cc1ccc2nc(N3CCS(=O)(=O)c4cc(F)ccc4C3)cc(NCC3(CN)COC3)c2c1` [Example 3-1, N-{[3-(Aminomethyl)oxetan-3-yl]methyl}-2-(8-fluoro-1,1-dioxido-2,3-dihydro-1,4-benzothiazepin-4(5H)-yl)-6-methylquinolin-4-amine] to `NC1(CNc2cc(N3CCS(=O)(=O)c4ccc(F)cc4C3)nc3ccc(Cl)cc23)COC1` [Example 3-3, N-[(3-Aminooxetan-3-yl)methyl]-6-chloro-2-(7-fluoro-1,1-dioxido-2,3-dihydro-1,4-benzothiazepin-4(5H)-yl)quinolin-4-amine], the EC50 rises from 0.006 µM to 3.55 µM (590-fold).

First: NCCNc1cc(N2CCS(=O)(=O)c3ccccc3C2)nc2ccc(Cl)cc12 [Example 3-46, N-[6-Chloro-2-(1,1-dioxido-2,3-dihydro-1,4-benzothiazepin-4(5H)-yl)quinolin-4-yl]ethane-1,2-diamine]
Second: O=S1(=O)CCN(c2cc(NCC(O)CO)c3cc(Cl)ccc3n2)Cc2ccccc21 (stereo not shown) [Example 32-2, 3-{[6-Chloro-2-(1,1-dioxido-2,3-dihydro-1,4-benzothiazepin-4(5H)-yl)quinolin-4-yl]amino}propane-1,2-diol]
The EC50 of the first is 46-fold lower: 0.053 µM for the first, 2.45 µM for the second. The first is the more potent here.

Compared with `CCNC(=O)Nc1cc(N2CCC(F)(F)c3ccccc3C2)nc2ccc(C)cc12` [Example 110-14], `Cc1ccc2nc(N3CCS(=O)(=O)c4ccccc4C3)cc(NC(=O)CCN)c2c1` [Example 42-2, N-[2-(1,1-Dioxido-2,3-dihydro-1,4-benzothiazepin-4(5H)-yl)-6-methylquinolin-4-yl]-beta-alaninamide] is 18-fold lower in EC50: 0.648 µM for the first, 0.037 µM for the second. The second is the more potent here.

`Cc1ccc2nc(N3CC[S+]([O-])c4ccccc4C3)nc(NCC3(N)COC3)c2c1` (stereo not shown) [Example 55-1, N-[(3-Aminooxetan-3-yl)methyl]-6-methyl-2-(1-oxido-2,3-dihydro-1,4-benzothiazepin-4(5H)-yl)quinazolin-4-amine] and `Cc1ccc2nc(N3CC[S+]([O-])c4ccccc4C3)nc(N[C@@H]3CNC[C@H]3F)c2c1` (relative stereo) [Example 92-1, N-(trans-4-Fluoropyrrolidin-3-yl)-6-methyl-2-(1-oxido-2,3-dihydro-1,4-benzothiazepin-4(5H)-yl)quinazolin-4-amine] are within 1.5-fold of each other in EC50: 0.007 µM for the first, 0.009 µM for the second.

Going from `Cc1ccc2nc(N3CCS(=O)(=O)c4ccccc4C3)cc(NCC3(N)CCOC3)c2c1` (stereo not shown) [Example 2-1, N-[(3-Aminotetrahydrofuran-3-yl)methyl]-2-(1,1-dioxido-2,3-dihydro-1,4-benzothiazepin-4(5H)-yl)-6-methylquinolin-4-amine] to `Cc1ccc2nc(N3CCS(=O)(=O)c4ccccc4C3)cc(NC(=O)c3cccnc3)c2c1` [Example 47-4, N-[2-(1,1-Dioxido-2,3-dihydro-1,4-benzothiazepin-4(5H)-yl)-6-methylquinolin-4-yl]pyridine-3-carboxamide], the EC50 rises from 0.024 µM to 0.993 µM (41-fold).

First: NCC(F)(F)CNc1cc(N2CC[S+]([O-])c3ccccc3C2)nc2ccc(Cl)cc12 (stereo not shown) [Example 18-6, N-[6-Chloro-2-(1-oxido-2,3-dihydro-1,4-benzothiazepin-4(5H)-yl)quinolin-4-yl]-2,2-difluoropropane-1,3-diamine]
Second: NCCNc1cc(N2CCCc3cc(F)ccc3C2)nc2ccccc12 [Example 118-16, N-[2-(7-Fluoro-1,3,4,5-tetrahydro-2H-2-benzazepin-2-yl)quinolin-4-yl]ethane-1,2-diamine]
The EC50 of the first is 11-fold lower: 0.061 µM for the first, 0.695 µM for the second. The first is the more potent here.

Compared with `Cc1ccc2nc(N3CCS(=O)(=O)c4ccccc4C3)nc(NCC(C)(C)N)c2c1` [Example 60, N^˜1^˜-[2-(1,1-Dioxido-2,3-dihydro-1,4-benzothiazepin-4(5H)-yl)-6-methylquinazolin-4-yl]-2-methylpropane-1,2-diamine], `Cc1ccc2nc(N3CCC(F)(F)c4ccccc4C3)nc(NCC(F)(F)CN)c2c1` [Example 117, N-[2-(5,5-Difluoro-1,3,4,5-tetrahydro-2H-2-benzazepin-2-yl)-6-methylquinazolin-4-yl]-2,2-difluoropropane-1,3-diamine] is 330-fold higher in EC50: 0.018 µM for the first, 5.97 µM for the second. The first is the more potent here.

Going from `NCC(=O)Nc1cc(N2CCCc3ccccc3C2)nc2ccccc12` [Example 127, N-[2-(1,3,4,5-Tetrahydro-2H-2-benzazepin-2-yl)quinolin-4-yl]glycinamide] to `CS(=O)(=O)c1ccc2c(c1)CCCN(c1cc(NCCN)c3ccccc3n1)C2` [Example 120-1, N-{2-[7-(Methylsulfonyl)-1,3,4,5-tetrahydro-2H-2-benzazepin-2-yl]quinolin-4-yl}ethane-1,2-diamine], the EC50 falls from 6.25 µM to 2.19 µM (2.9-fold).

In the case of `Cc1ccc2nc(N3CCS(=O)(=O)c4cc(Cl)ccc4C3)cc(NCC(O)CO)c2c1` (stereo not shown) [Example 32-3, 3-{[2-(8-Chloro-1,1-dioxido-2,3-dihydro-1,4-benzothiazepin-4(5H)-yl)-6-methylquinolin-4-yl]amino}propane-1,2-diol], the EC50 was 1.99 µM.
